Tests used:
[1] = test system: L1210 murine leukemia cells, cyclophosphamide-sensitive (/0); assay: In vitro soft agar colony-forming cytotoxicity assay, cyclophosphamide-sensitive L1210 cells; type: cell-based, mouse; parameters: unit not given here; settings: L1210 /0 (sensitive); 1-hour exposure, 99% cell kill
Text: (§1) A soft agar colony-forming assay according to the procedure of Chu and Fischer, Biochem. Pharmacol., 17, 753-767 (1968) was used and modified where necessary. Cultured mouse L1210 and P388 sensitive cells were purchased from EG&G Mason Research Institute, Tumor Bank, Worchester, Mass. Cultured cyclophosphamide resistant L1210 and P388 cells were obtained from Dr. Robert Struck of Southern Research Institute, Birmingham, Ala. Typically, the desired cells (2-3×10^6 cells/ml) in exponential growth and suspended in 6.5 ml of Fischer's medium (Gibco Lab., Grand Island, N.Y.) were divided into six groups (1 control and 5 treated groups) containing an equal number of cells in 1 ml. These cells were then treated with varying doses of drug (solution of perhydrooxazine in media or 20% ethanol-water), diluted with media to give a total volume of 10 ml, and incubated for one hour at 37° C. The cells were washed three times with 3 ml of supplemented Fischer's medium (containing 10% horse serum) by centrifuge (800×g), removal of media by suction, and resuspension of the pellet in media (5 ml). A 1-ml portion was used to determine the cell count with a Coulter counter. From the remainder, a 5-ml suspension of cells was prepared at a density of 10^5 cells/ml, and between 10^2 and 10^5 cells were placed on soft agar and incubated at 37° C. Colonies were counted after 10 days. The log of the surviving fraction was plotted vs. drug concentration and from this plot the LC99 was obtained. (By definition, the LC99 value represents the concentration of drug necessary to effect a 99% cell kill.)

[2] = test system: L1210 murine leukemia cells, cyclophosphamide-resistant (/CP); assay: In vitro soft agar colony-forming cytotoxicity assay, cyclophosphamide-resistant L1210 cells; type: cell-based, mouse; parameters: LC99: unit not given here; settings: for LC99: L1210 /CP (cyclophosphamide-resistant), 1-hour exposure, 99% cell kill; for RF, resistance factor = ratio of LC99 in resistant/sensitive cells: L1210, 60 min
Text: as §1

[3] = test system: P388 murine leukemia cells, cyclophosphamide-sensitive (/0); assay: In vitro soft agar colony-forming cytotoxicity assay, cyclophosphamide-sensitive P388 cells; type: cell-based, mouse; parameters: unit not given here; settings: P388 /0 (sensitive); 1-hour exposure, 99% cell kill
Text: as §1

[4] = test system: P388 murine leukemia cells, cyclophosphamide-resistant (/CP); assay: In vitro soft agar colony-forming cytotoxicity assay, cyclophosphamide-resistant P388 cells; type: cell-based, mouse; parameters: LC99: unit not given here; settings: for LC99: P388 /CP (cyclophosphamide-resistant), 1-hour exposure, 99% cell kill; for RF, resistance factor = ratio of LC99 in resistant/sensitive cells: P388, 60 min
Text: as §1

L1210 tumor cells = assay: In vivo antitumor activity, survival of L1210 bearing mice; parameters: species or system mouse (male B6 D2 F1); settings: for response vs control in vivo at 34 µmol/kg / response vs control in vivo at 51 µmol/kg / response vs control in vivo at 68 µmol/kg / response vs control in vivo at 17 µmol/kg: Mus musculus, L1210, ip, read-out: Survival of L1210 bearing mice - % T/C × 100; for Long Term Survivors: experiment terminated on day 30; for toxicity compared with the reference activated cyclophosphamide: higher doses; for response vs control in vivo at 17 µmol/kg: 17 umol/kg
Procedure: (§2) Typically 4 groups of 10 male B6 D2 F1 mice (Jackson Breeding Lab., Bar Harbor Me) were injected i.p. with 1×10^5 L1210 tumor cells. Twenty four hours after injection three groups were treated (i.p. injection) with varying doses of drug, and the fourth group received the vehicle alone. The mice were observed daily and death dates were recorded. The experiment was terminated on day 30 and median survival time (days) and % T/C (ratio of median survival time of treated group divided by the […] survival time of the control group) was calculated. The drug was delivered using either an isotonic saline solution or a carboxymethyl cellulose suspension depending on the solubility of the drug.

CP-resistant L1210 cells = assay: In vivo antitumor activity, survival of mice bearing CP-resistant L1210 cells; parameters: species or system mouse (male B6 D2 F1); settings: for Survival of L1210 bearing mice - % T/C × 100: CP-resistant L1210, i.p.
Procedure: as §2

| Structure (SMILES) | LC99 [1] | LC99 [2] | RF, resistance factor = ratio of LC99 in resistant/sensitive cells [2] | LC99 [3] | LC99 [4] | RF, resistance factor = ratio of LC99 in resistant/sensitive cells [4] | response vs control in vivo at 34 µmol/kg (L1210 tumor cells; 34 umol/kg, i.p.) | response vs control in vivo at 51 µmol/kg (L1210 tumor cells; 51 umol/kg, i.p.) | response vs control in vivo at 68 µmol/kg (L1210 tumor cells; 68 umol/kg, i.p.) | Long Term Survivors (L1210 tumor cells; 51 umol/kg, i.p.) | Long Term Survivors (L1210 tumor cells; 68 umol/kg, i.p.) | antitumor activity in L1210 leukemic mice (L1210 tumor cells; all doses tested) | toxicity compared with the reference activated cyclophosphamide (L1210 tumor cells) | response vs control in vivo at 17 µmol/kg (L1210 tumor cells; i.p.) | further results |
| --- | --- | --- | --- | --- | --- | --- | --- | --- | --- | --- | --- | --- | --- | --- | --- |
| O=P1(N(CCCl)CCCl)NC(OO)CC(c2cccnc2)O1 (centres unmarked) [Compound 8, 4-hydroxyperoxy-6-(3-pyridyl)cyclophosphamide] | 36 | 56 | 1.6 | 33 | 24 | 0.7 | 131% | 69% | 63% |  |  |  |  |  |  |
| CC1CC(OO)NP(=O)(N(CCCl)CCCl)O1 (centres unmarked) [Compound 1, 4-hydroperoxy-6-methylcyclophosphamide] | 32 | 177 | 5.5 | 26 | 69 | 2.7 | 138% | 56% | 50% |  |  |  |  |  | Long Term Survivors (L1210 tumor cells; 34 umol/kg, i.p.): 2/6 |
| Cc1ccc(C2CC(OO)NP(=O)(N(CCCl)CCCl)O2)cc1 (centres unmarked) [Compound 6, 4-Hydroperoxy-6-p-tolylcyclophosphamide] | 5 | 6 | 1.2 | 3 | 3 | 1.0 | 150% | 175% | 180% | 1/6 | 1/6 | highly active at all doses tested | less toxic at higher doses than the reference activated cyclophosphamide |  |  |
| CC(C)C1CC(OO)NP(=O)(N(CCCl)CCCl)O1 (centres unmarked) [Compound 2, 4-hydroperoxy-6-isopropylcyclophosphamide] | 105 | 115 | 1.1 | 86 | 61 | 0.7 |  |  |  |  |  |  |  |  |  |
| O=P1(N(CCCl)CCCl)NC(OO)CCO1 (centres unmarked) [Ref, reference compound] | 8 | 141 | 17 | 6 | 60 | 10 | 194% | 50% |  |  |  |  |  | 136% | toxicity (CP-resistant L1210 cells; 51 umol/kg dose, mice bearing cyclophosphamide resistant L1210): toxicity is apparent at the 51 umol/kg dose; Survival of L1210 bearing mice - % T/C × 100 (CP-resistant L1210 cells; 17 umol/kg): 112%; Survival of L1210 bearing mice - % T/C × 100 (CP-resistant L1210 cells; 34 umol/kg): 100%; Survival of L1210 bearing mice - % T/C × 100 (CP-resistant L1210 cells; 51 umol/kg): 75%; survival / lifespan of mice bearing cyclophosphamide resistant L1210 leukemia (CP-resistant L1210 cells): no significant increase in lifespan is observed |
| O=P1(N(CCCl)CCCl)NC(OO)CC(CCc2ccccc2)O1 (centres unmarked) [Compound 3, 4-hydroperoxy-6-phenethylcyclophosphamide] | 11 | 9 | 1.1 | 9 | 5 | 0.6 | 106% | 25% |  |  |  |  |  |  |  |
| O=P1(N(CCCl)CCCl)NC(OO)CC(c2ccncc2)O1 (centres unmarked) [Compound 9, 4-Hydroperoxy-6-(4-pyridyl)cyclophosphamide] | 53 | 57 | 1.1 | 44 | 27 | 0.6 | 150% | 164% | 193% |  | 1/6 | highly active at all doses tested | less toxic at higher doses than the reference activated cyclophosphamide | 131% | Survival of L1210 bearing mice - % T/C × 100 (CP-resistant L1210 cells; 17 umol/kg): 119%; Survival of L1210 bearing mice - % T/C × 100 (CP-resistant L1210 cells; 34 umol/kg): 131%; Survival of L1210 bearing mice - % T/C × 100 (CP-resistant L1210 cells; 51 umol/kg): 138%; Survival of L1210 bearing mice - % T/C × 100 (CP-resistant L1210 cells; 68 umol/kg): 150%; survival / lifespan of mice bearing cyclophosphamide resistant L1210 leukemia (CP-resistant L1210 cells): prolongs the survival of these mice bearing the drug-resistant leukemia at all doses tested |
| O=P1(N(CCCl)CCCl)NC(OO)CC(c2ccc(F)cc2)O1 (centres unmarked) [Compound 7, 4-hydroperoxy-6-p-fluorophenylcyclophosphamide] | 7 | 8 | 1.1 | 6 | 3 | 0.5 | 163% | 188% | 63% | 1/6 | 1/6 |  |  |  | antitumor activity in L1210 leukemic mice (L1210 tumor cells; lower doses tested): highly active at the lower doses tested |
| O=[N+]([O-])c1ccc(C2CC(OO)NP(=O)(N(CCCl)CCCl)O2)cc1 (centres unmarked) [Compound 5, 4-hydroperoxy-6-p-nitrophenylcyclophosphamide] | 8 | 8 | 1.0 | 7 | 3 | 0.4 | 163% | 194% | 225% | 2/6 | 4/6 | highly active at all doses tested | less toxic at higher doses than the reference activated cyclophosphamide |  | Long Term Survivors (L1210 tumor cells; 34 umol/kg, i.p.): 1/6 |
| O=P1(N(CCCl)CCCl)NC(OO)CC(c2ccccc2)O1 (centres unmarked) [Compound 4, 4-hydroperoxy-6-phenylcyclophosphamide] | 17 | 15 | 0.9 | 11 | 7 | 0.6 | 144% |  |  |  |  |  |  | 117% | Survival of L1210 bearing mice - % T/C × 100 (L1210 tumor cells; 51 umol/kg, i.p.): toxic |
